From US5563155A, “Individual stereosiomers of 7-[3-(aminoalkyl)-1-pyrrolidinyl]-quinolones and naphthyridones as antibacterial agents” (Warner-Lambert Company, priority 1995, dated 1996)
Converted amounts (≈) assume the structure as drawn. Where a name gives a salt, the structure may show the parent alone. Read-outs that look alike come from different tables or passages of the source.

What was measured:
Esch. coli Vogel [1] = experiment: in vitro antibacterial activity, microtitration dilution (MIC), Esch. coli Vogel; type: cell-based; conditions: Escherichia coli, read-out: minimum inhibiting concentration (MIC)
Description: (§1) The in vitro antibacterial activity, is obtained by the microtitration dilution method as described in Heifetz, et al., Antimicr. Agents & Chemother., 6, 124 (1974), which is incorporated herein by reference.
(§2) By use of the above methods, the following minimum inhibiting concentration values (MICs in μg/mL), PD50 's in mg/kg, no effect phototoxicity dose in mg/kg and the cytotoxicity IC50 in μg/mL were obtained for representative enantiomers of the invention and compounds of the prior art as shown in the table.

Staph. aureus UC-76 = experiment: in vitro antibacterial activity, microtitration dilution (MIC), Staph. aureus UC-76; type: cell-based; conditions: Staphylococcus aureus, UC76, read-out: minimum inhibiting concentration (MIC)
Description: as §1, §2

Strep. pyogenes C-203 [2] = experiment: in vitro antibacterial activity, microtitration dilution (MIC), Strep. pyogenes C-203; type: cell-based; conditions: Streptococcus pyogenes, C203, read-out: minimum inhibiting concentration (MIC)
Description: as §1, §2

Staph. aureus H 228 = experiment: in vitro antibacterial activity, microtitration dilution (MIC), Staph. aureus H 228; type: cell-based; conditions: Staphylococcus aureus, H228, read-out: minimum inhibiting concentration (MIC)
Description: as §1, §2

Klebs. pneumoniae MGH-2 = experiment: in vitro antibacterial activity, microtitration dilution (MIC), Klebs. pneumoniae MGH-2; type: cell-based; conditions: Klebsiella pneumoniae, MGH2, read-out: minimum inhibiting concentration (MIC)
Description: as §1, §2

Pseud. aeruginosa UI-18 = experiment: in vitro antibacterial activity, microtitration dilution (MIC), Pseud. aeruginosa UI-18; type: cell-based; conditions: Pseudomonas aeruginosa, UI18, read-out: minimum inhibiting concentration (MIC)
Description: as §1, §2

Prot. rettgeri M 1771 = experiment: in vitro antibacterial activity, microtitration dilution (MIC), Prot. rettgeri M 1771; type: cell-based; conditions: Providencia rettgeri, M1771, read-out: minimum inhibiting concentration (MIC)
Description: as §1, §2

Strep. pheumoniae SV-1 [3] = experiment: in vitro antibacterial activity, microtitration dilution (MIC), Strep. pneumoniae SV-1; type: cell-based; conditions: Streptococcus pneumoniae, SV1, read-out: minimum inhibiting concentration (MIC)
Description: as §1, §2

Strep. faecalis MGH-2 = experiment: in vitro antibacterial activity, microtitration dilution (MIC), Strep. faecalis MGH-2; type: cell-based; conditions: Enterococcus faecalis, MGH2, read-out: minimum inhibiting concentration (MIC)
Description: as §1, §2

Ent. cloacae MA2646 = experiment: in vitro antibacterial activity, microtitration dilution (MIC), Ent. cloacae MA2646; type: cell-based; conditions: Enterobacter cloacae, read-out: minimum inhibiting concentration (MIC)
Description: as §1, §2

Strep. pheumoniae SV-1 [4] = experiment: median protective dose in mice given lethal systemic infections, Strep. pneumoniae SV-1; type: in vivo; conditions: Streptococcus pneumoniae, single dose at time of challenge, read-out: median protective dose (PD50)
Experimental: (§3) The in vivo activity is obtained when the compounds are tested according to the procedure of Miller, et al (Proc. Soc. Exp. Biol. Med. 57, 261, 1944). The median protective dose (PD50) was determined in mice given lethal systemic infections. Single doses of compound were given at time of challenge.
as §2
(§4) The in vivo data as PD50 s are reported below the line of MICs for the same compound.

Strep. pyogenes C-203 [5] = experiment: median protective dose in mice given lethal systemic infections, Strep. pyogenes C-203; type: in vivo; conditions: Streptococcus pyogenes, single dose at time of challenge, read-out: median protective dose (PD50)
Experimental: as §3, §2, §4

Esch. coli Vogel [6] = experiment: median protective dose in mice given lethal systemic infections, Esch. coli Vogel; type: in vivo; conditions: Escherichia coli, single dose at time of challenge, read-out: median protective dose (PD50)
Experimental: as §3, §2, §4

[7] = cytotoxicity, hamster V-79 cells, colony reduction; type: cell-based; conditions: 3 hours treatment, colonies counted after 5 days, read-out: Cytotox (cytotoxicity IC50)
Experimental: The cytotoxicity data is obtained using hamster V-79 cells. The cells were suspended in tissue culture medium and grown overnight. Cells were treated with drug for 3 hours, washed free of drug and then replated, and the colonies counted after 5 days. The concentration of drug that reduced colones by 50% relative to control was recorded.
as §2

Structure (SMILES)	MIC (Esch. coli Vogel [1]) [µg/mL]	MIC (Staph. aureus UC-76) [µg/mL]	MIC (Strep. pyogenes C-203 [2]) [µg/mL]	MIC (Staph. aureus H 228) [µg/mL]	MIC (Klebs. pneumoniae MGH-2) [µg/mL]	MIC (Pseud. aeruginosa UI-18) [µg/mL]	MIC (Prot. rettgeri M 1771) [µg/mL]	MIC (Strep. pheumoniae SV-1 [3]) [µg/mL]	MIC (Strep. faecalis MGH-2) [µg/mL]	MIC (Ent. cloacae MA2646) [µg/mL]	ED50 (Strep. pheumoniae SV-1 [4]; SV1, PO) [mg/kg]	ED50 (Strep. pheumoniae SV-1 [4]; SV1, SC) [mg/kg]	ED50 (Strep. pyogenes C-203 [5]; C203, PO) [mg/kg]	ED50 (Strep. pyogenes C-203 [5]; C203, SC) [mg/kg]	ED50 (Esch. coli Vogel [6]; PO) [mg/kg]	ED50 (Esch. coli Vogel [6]; SC) [mg/kg]	CC50 at 3 h [7] [µg/mL]
CCN[C@@H](C)[C@@H]1CCN(c2nc3c(cc2F)c(=O)c(C(=O)O)cn3-c2ccc(F)cc2F)C1 [Example 50, 3R,1S-7-[3-(1-N-ethylaminoethyl)-1-pyrrolidinyl]-1-(2,4-difluorophenyl)-6-fluoro-1,4-dihydro-4-oxo-1,8-naphthyridine-3-carboxylic acid]	0.4 (≈ 0.869 µM)	0.013 (≈ 0.0282 µM)	0.1 (≈ 0.217 µM)	0.05 (≈ 0.109 µM)	0.8 (≈ 1.74 µM)	3.1 (≈ 6.73 µM)	1.6 (≈ 3.47 µM)	0.1 (≈ 0.217 µM)	0.2 (≈ 0.434 µM)	0.8 (≈ 1.74 µM)	2	2	–	–	–	–	–
CN[C@@H](C)[C@@H]1CCN(c2nc3c(cc2F)c(=O)c(C(=O)O)cn3-c2ccc(F)cc2F)C1 [Example 64, 3R,1S-1-(2,4-difluorophenyl)-6-fluoro-1,4-dihydro-7-[3-[1-(methylamino)ethyl]-1-pyrrolidinyl]-4-oxo-1,8-naphthyridine-3-carboxylic acid, monohydrochloride]	0.4	0.025	0.05	0.1	0.8	3.1	1.6	0.025	0.2	0.8	–	–	4	2	5	2	310
C[C@@H](N)[C@H]1CCN(c2cc3c(cc2F)c(=O)c(C(=O)O)cn3C2CC2)C1 [Example 1, 3S,1R-1-cyclopropyl-6-fluoro-7-[3-(1-aminoethyl)-1-pyrrolidinyl]-1,4-dihydro-4-oxo-3-quinolinecarboxylic acid]	0.2 (≈ 0.556 µM)	0.05 (≈ 0.139 µM)	0.1 (≈ 0.278 µM)	0.4 (≈ 1.11 µM)	0.4 (≈ 1.11 µM)	1.5 (≈ 4.17 µM)	0.8 (≈ 2.23 µM)	0.1 (≈ 0.278 µM)	0.2 (≈ 0.556 µM)	0.2 (≈ 0.556 µM)	> 100	3	–	–	35	2	160 (≈ 445 µM)
Cc1c(F)c(N2CC[C@@H]([C@H](C)N)C2)cc2c1c(=O)c(C(=O)O)cn2-c1ccc(F)cc1F [Example 65, 3R,1S-7-[3-(1-aminoethyl)-1-pyrrolidinyl]-1-(2,4-difluorophenyl)-6-fluoro-1,4-dihydro-5-methyl-4-oxo-3-quinolinecarboxylic acid, monohydrochloride]	0.1	0.006	0.003	0.013	0.2	0.8	0.4	0.003	0.025	0.1	–	–	5	0.6	–	–	10
CCN[C@H](C)[C@H]1CCN(c2nc3c(cc2F)c(=O)c(C(=O)O)cn3C2CC2)C1 [Example 79, 3S,1R-1-cyclopropyl-7-[3-[1-(ethylamino)ethyl]-1-pyrrolidinyl]-6-fluoro-1,4-dihydro-4-oxo-1,8-naphthyridine-3-carboxylic acid]	0.1 (≈ 0.257 µM)	0.025 (≈ 0.0644 µM)	0.05 (≈ 0.129 µM)	0.1 (≈ 0.257 µM)	0.2 (≈ 0.515 µM)	1.6 (≈ 4.12 µM)	0.8 (≈ 2.06 µM)	0.025 (≈ 0.0644 µM)	0.05 (≈ 0.129 µM)	0.1 (≈ 0.257 µM)	–	–	2	2	2	1	–
